Data taken from DBAASP.
≈ marks a conversion by molar mass, not a printed value.

Legend:
Test in all cases: ≥ marks a high value that may be exact or a test limit, other limits are often not marked, values filed in µg/mL are converted to µM
[1] = tested on: Bacillus subtilis ATCC 6633
[2] = tested on: Corynebacterium xerosis C875
[3] = tested on: Enterococcus faecalis ATCC 29212
[4] = tested on: Escherichia coli ATCC 25922
Escherichia coli DC2 = tested on: Escherichia coli DC2
Escherichia coli UB1005 = tested on: Escherichia coli UB1005
[5] = tested on: Pseudomonas aeruginosa ATCC 27853
[6] = tested on: Staphylococcus aureus ATCC 25923
[7] = tested on: Staphylococcus epidermidis C621
[8] = tested on: Pseudomonas aeruginosa Ps4
[9] = tested on: Escherichia coli DSM 1103
[10] = tested on: Pseudomonas aeruginosa DSM 1117
[11] = tested on: Staphylococcus aureus DSM 1104
[12] = tested on: Staphylococcus epidermidis DSM 1798
[13] = tested on: Escherichia coli ATCC 11775
[14] = tested on: Staphylococcus aureus ATCC 12600
[15] = tested on: Escherichia coli NCTC 10418

Compound `C[C@H](NC(=O)[C@H](C)NC(=O)[C@H](C)NC(=O)[C@H](Cc1ccccc1)NC(=O)[C@H](C)NC(=O)[C@H](C)NC(=O)[C@H](C)NC(=O)[C@H](CCCCN)NC(=O)[C@@H](N)CCCCN)C(=O)N[C@@H](C)C(=O)N[C@@H](C)C(=O)N[C@@H](Cc1ccccc1)C(=O)N[C@@H](C)C(=O)N[C@@H](C)C(=O)N[C@@H](Cc1c[nH]c2ccccc12)C(=O)N[C@@H](C)C(=O)N[C@@H](C)C(=O)N[C@@H](Cc1ccccc1)C(=O)N[C@@H](C)C(=O)N[C@@H](C)C(=O)N[C@@H](C)C(=O)N[C@@H](CCCCN)C(=O)N[C@@H](CCCCN)C(=O)N[C@@H](CCCCN)C(=O)N[C@@H](CCCCN)C(N)=O` [KKAAAFAAAAAFAAWAAFAAAKKKK] has an MIC [1] of 1 µM (≈ 2.48 µg/mL), an MIC [2] of 0.25 µM (≈ 0.62 µg/mL) and an MIC [3] of over 32 µM. For the same compound, the MIC [4] was over 32 µM, the MIC (Escherichia coli DC2) was 4 µM (≈ 9.92 µg/mL) and the MIC (Escherichia coli UB1005) was 16 µM (≈ 39.7 µg/mL). It also gave an MIC [5] of 8 µM (≈ 19.8 µg/mL), an MIC [6] of over 32 µM and an MIC [7] of 2 µM (≈ 4.96 µg/mL).

Work on `C[C@H](NC(=O)[C@H](C)NC(=O)[C@H](C)NC(=O)[C@H](Cc1ccccc1)NC(=O)[C@H](C)NC(=O)[C@H](C)NC(=O)[C@H](Cc1c[nH]c2ccccc12)NC(=O)[C@H](C)NC(=O)[C@H](C)NC(=O)[C@H](Cc1ccccc1)NC(=O)[C@H](C)NC(=O)[C@H](C)NC(=O)[C@H](C)NC(=O)[C@H](C)NC(=O)[C@H](C)NC(=O)[C@H](Cc1ccccc1)NC(=O)[C@H](C)NC(=O)[C@H](C)NC(=O)[C@H](C)NC(=O)[C@H](CCCCN)NC(=O)[C@H](CCCCN)NC(=O)[C@H](CCCCN)NC(=O)[C@H](CCCCN)NC(=O)[C@H](CCCCN)NC(=O)[C@@H](N)CCCCN)C(N)=O` [KKKKKKAAAFAAAAAFAAWAAFAAA] yielded an MIC [2] of 1 µM (≈ 2.48 µg/mL), an MIC [4] of 16 µM (≈ 39.7 µg/mL) and an MIC (Escherichia coli DC2) of 8 µM (≈ 19.8 µg/mL). The MIC (Escherichia coli UB1005) was 16 µM (≈ 39.7 µg/mL), the MIC [5] was 32 µM (≈ 79.4 µg/mL) and the MIC [7] was 4 µM (≈ 9.92 µg/mL).

With `CC[C@H](C)[C@H](NC(=O)[C@H](CCCN=C(N)N)NC(=O)[C@@H](NC(=O)[C@H](CCCN=C(N)N)NC(=O)[C@H](CCC(N)=O)NC(=O)[C@H](Cc1c[nH]c2ccccc12)NC(=O)[C@@H](N)Cc1ccccc1)[C@@H](C)CC)C(=O)N[C@@H](CCCN=C(N)N)C(=O)N[C@@H](CCCN=C(N)N)C(N)=O` [FWQRIRIRR] the MIC [8] was at least 188 µM.

Compound `CC(C)C[C@H](NC(=O)[C@H](CCCN=C(N)N)NC(=O)[C@@H](NC(=O)[C@@H]1CCCN1C(=O)[C@@H]1CCCN1C(=O)[C@@H]1CCCN1C(=O)[C@H](CC(C)C)NC(=O)[C@H](CCCN=C(N)N)NC(=O)[C@@H](NC(=O)[C@@H]1CCCN1C(=O)[C@@H]1CCCN1C(=O)[C@@H]1CCCN1C(=O)[C@H](CC(C)C)NC(=O)[C@H](CCCN=C(N)N)NC(=O)[C@@H](N)C(C)C)C(C)C)C(C)C)C(=O)N1CCC[C@H]1C(=O)N1CCC[C@H]1C(=O)N1CCC[C@H]1C(=O)O` [VRLPPPVRLPPPVRLPPP] has an MIC [9] of at least 122 µM, an MIC [10] of at least 122 µM and an MIC [11] of at least 122 µM. The MIC [12] was at least 122 µM.

With `CC[C@H](C)[C@@H]1NC(=O)[C@H](CC(C)C)NC(=O)[C@@H](NC(=O)[C@H](Cc2ccccc2)NC(=O)[C@H](CC(C)C)NC(=O)[C@H](CCCCN)NC(=O)[C@@H]2CCCN2C(=O)[C@H](CC(C)C)NC(=O)[C@H](C)NC(=O)[C@H](C)NC(=O)[C@H](CC(C)C)NC(=O)[C@H](C)NC(=O)[C@H](CC(C)C)NC(=O)[C@H](CO)NC(=O)[C@H](CC(C)C)NC(=O)[C@@H](N)CC(C)C)CSSC[C@@H](C(=O)O)NC(=O)[C@H](CCCCN)NC(=O)[C@H](CCCCN)NC(=O)[C@H](Cc2ccccc2)NC1=O` [LLSLALAALPKLFCLIFKKC] the MIC [13] was 25 µM (≈ 55.1 µg/mL) and the MIC [14] was 12.5 µM (≈ 27.5 µg/mL).

`CC[C@H](C)[C@H](NC(=O)[C@H](CC(N)=O)NC(=O)[C@H](CCCN=C(N)N)NC(=O)[C@H](CCC(N)=O)NC(=O)[C@H](Cc1c[nH]c2ccccc12)NC(=O)[C@@H](N)Cc1ccccc1)C(=O)N[C@@H](CCCN=C(N)N)C(=O)N[C@@H](CCCCN)C(=O)N[C@H](C(=O)N[C@@H](CO)C(N)=O)C(C)C` [FWQRNIRKVS] gave an MIC [8] of at least 187 µM.

Work on `CC[C@H](C)[C@H](NC(=O)[C@H](CCCN=C(N)N)NC(=O)[C@H](Cc1c[nH]c2ccccc12)NC(=O)[C@H](CC(N)=O)NC(=O)[C@H](CCCN=C(N)N)NC(=O)[C@H](CCC(N)=O)NC(=O)[C@H](Cc1c[nH]c2ccccc12)NC(=O)[C@@H](N)Cc1ccccc1)C(=O)N[C@@H](CCCN=C(N)N)C(=O)N[C@@H](CCCN=C(N)N)C(N)=O` [FWQRNWRIRR] yielded an MIC [8] of at least 165 µM.

`CC[C@H](C)[C@H](NC(=O)[C@H](C)NC(=O)CNC(=O)[C@H](C)NC(=O)[C@H](CCCN=C(N)N)NC(=O)[C@H](CO)NC(=O)[C@H](C)NC(=O)[C@H](CCSC)NC(=O)CN)C(=O)N[C@@H](C)C(=O)NCC(=O)N[C@@H](CCCN=C(N)N)C(=O)N[C@H](C(=O)N[C@@H](C)C(=O)N[C@@H](CCCN=C(N)N)C(=O)N[C@H](C(=O)N[C@@H](C)C(=O)N[C@@H](CC(C)C)C(=O)N[C@@H](CCCN=C(N)N)C(=O)N[C@@H](C)C(=O)N[C@@H](CC(C)C)C(N)=O)C(C)C)[C@@H](C)CC` [GMASRAGAIAGRIARVALRAL] gave an MIC [9] of 7 µM (≈ 14.6 µg/mL), an MIC [10] of at least 113 µM and an MIC [11] of 4 µM (≈ 8.32 µg/mL). For the same compound, the MIC [12] was 2 µM (≈ 4.16 µg/mL).

Work on `CC[C@H](C)[C@H](NC(=O)[C@H](CC(N)=O)NC(=O)[C@H](CCCN=C(N)N)NC(=O)[C@H](C)NC(=O)[C@H](Cc1c[nH]c2ccccc12)NC(=O)[C@@H](N)Cc1ccccc1)C(=O)N[C@@H](CCCN=C(N)N)C(=O)N[C@@H](CCCCN)C(=O)N[C@H](C(=O)N[C@@H](CCCN=C(N)N)C(N)=O)C(C)C` [FWARNIRKVR] yielded an MIC [8] of at least 186 µM.

In the case of `C[C@H](NC(=O)[C@H](C)NC(=O)[C@H](C)NC(=O)[C@H](CS)NC(=O)[C@H](C)NC(=O)[C@H](C)NC(=O)[C@H](C)NC(=O)[C@H](CCCCN)NC(=O)[C@@H](N)CCCCN)C(=O)N[C@@H](C)C(=O)N[C@@H](C)C(=O)N[C@@H](CS)C(=O)N[C@@H](C)C(=O)N[C@@H](C)C(=O)N[C@@H](Cc1c[nH]c2ccccc12)C(=O)N[C@@H](C)C(=O)N[C@@H](C)C(=O)N[C@@H](CS)C(=O)N[C@@H](C)C(=O)N[C@@H](C)C(=O)N[C@@H](C)C(=O)N[C@@H](CCCCN)C(=O)N[C@@H](CCCCN)C(=O)N[C@@H](CCCCN)C(=O)N[C@@H](CCCCN)C(N)=O` [KKAAACAAAAACAAWAACAAAKKKK], the MIC [2] is reported as 1 µM (≈ 2.35 µg/mL), the MIC (Escherichia coli DC2) is reported as 8 µM (≈ 18.8 µg/mL) and the MIC (Escherichia coli UB1005) is reported as 16 µM (≈ 37.6 µg/mL). For the same compound, the MIC [7] was at least 32 µM.

Compound `CC[C@H](C)[C@H](NC(=O)[C@H](CC(N)=O)NC(=O)[C@H](CCCN=C(N)N)NC(=O)[C@H](CC(C)C)NC(=O)[C@H](Cc1c[nH]c2ccccc12)NC(=O)[C@@H](N)Cc1ccccc1)C(=O)N[C@@H](CCCN=C(N)N)C(=O)N[C@@H](CCCCN)C(=O)N[C@H](C(=O)N[C@@H](CCCN=C(N)N)C(N)=O)C(C)C` [FWLRNIRKVR] has an MIC [8] of at least 180 µM.

For `CSCC[C@H](NC(=O)[C@H](Cc1c[nH]c2ccccc12)NC(=O)[C@@H]1CCCN1C(=O)[C@@H]1CCCN1C(=O)[C@H](Cc1ccccc1)NC(=O)[C@@H](NC(=O)[C@H](Cc1cnc[nH]1)NC(=O)[C@H](Cc1ccccc1)NC(=O)[C@@H](N)CO)C(C)C)C(=O)N[C@H]1CSSC[C@@H](C(=O)O)NC(=O)[C@H](CCCCN)NC(=O)[C@H](CCCCN)NC(=O)[C@H](CC(C)C)NC(=O)[C@H](CO)NC(=O)[C@H](CCCCN)NC1=O` [SFHVFPPWMCKSLKKC], the MIC [15] was at least 70 µM.

For `CC[C@H](C)[C@H](NC(=O)[C@H](CCCN=C(N)N)NC(=O)CNC(=O)[C@H](C)NC(=O)[C@@H](NC(=O)[C@H](CCCN=C(N)N)NC(=O)[C@H](C)NC(=O)[C@@H](NC(=O)[C@H](CCCN=C(N)N)NC(=O)CNC(=O)[C@H](C)NC(=O)[C@@H](NC(=O)[C@H](CCCN=C(N)N)NC(=O)[C@H](C)NC(=O)[C@@H](NC(=O)[C@H](CCCN=C(N)N)NC(=O)CNC(=O)[C@H](C)NC(=O)[C@@H](NC(=O)[C@@H](N)CCCN=C(N)N)[C@@H](C)CC)[C@@H](C)CC)[C@@H](C)CC)[C@@H](C)CC)[C@@H](C)CC)C(=O)N[C@@H](C)C(N)=O` [RIAGRIARIAGRIARIAGRIA], the MIC [9] was 6 µM (≈ 13.4 µg/mL), the MIC [10] was 26 µM (≈ 58 µg/mL) and the MIC [11] was 3 µM (≈ 6.69 µg/mL). It also gave an MIC [12] of 2 µM (≈ 4.46 µg/mL).

With `CC[C@H](C)[C@H](NC(=O)CNC(=O)[C@@H](NC(=O)[C@H](C)N)C(C)C)C(=O)NCC(=O)N[C@@H](C)C(=O)N[C@@H](CC(C)C)C(=O)N[C@@H](Cc1ccccc1)C(=O)N[C@@H](CC(C)C)C(=O)NCC(=O)N[C@@H](Cc1ccccc1)C(=O)N[C@@H](CC(C)C)C(=O)NCC(=O)N[C@@H](C)C(=O)N[C@@H](C)C(=O)NCC(=O)N[C@@H](CO)C(=O)N[C@H](C(=O)N[C@@H](CCSC)C(=O)NCC(=O)N[C@@H](C)C(=O)N[C@@H](CCCN=C(N)N)C(=O)N[C@@H](CO)C(N)=O)[C@@H](C)O` [AVGIGALFLGFLGAAGSTMGARS] the MIC [9] was at least 117 µM, the MIC [10] was at least 117 µM and the MIC [11] was at least 117 µM. The MIC [12] was at least 117 µM.
